Test [1] relates to Swiss mice. The note with it: Moreira and Guimarães, 2005; cited from earlier work.
Test [2] deals with Swiss mice. The note with it: cited from earlier work.
Test [3] has as its system Swiss mice. The note with it: single administration i.p., MK801 0.3-1 mg/kg i.p., also tested 1 and 15 mg/kg; cited from earlier work.
The subject of test [4] is rats submitted to the elevated plus maze. To be noted: intra-dlPAG, same paradigm; doses tested: 15, 30 and 60 nmol; cited from earlier work.
The conditions of test [5]: Campos & Guimarães, 2008; cited from earlier work.
In test [6] the test system is mice tested in the FST. The note with it: i.p., Swiss mice; doses tested 3, 10, 30 and 100 mg/kg; cited from earlier work.
Test [7] concerns rats submitted to the elevated plus maze. Description: Elevated plus-maze (EPM), intra-dlPAG microinjection in rats. In kind it is in vivo, Wistar rats. The protocol:
(§1) Male Wistar rats (220-250 g) and Swiss mice (25-30 g) originated from the Central Animal Farm of the School of Medicine of Ribeirão Preto (FMRP-USP) were maintained in groups of five animals per box (41×33×17 cm) in a temperature controlled room (24±2° C.) with a 12×12 h light-dark cycle. They received water and food ad libitum throughout the study period.
(§2) HU-474 (1, 3 and 10 mg/kg) was administered intraperitoneally (IP) in mice at 10 mL/kg volume and HU-475 (1, 3 and 10 nmol) was injected intra-dlPAG in rats. Both drugs were dissolved in 2% Tween 80 in sterile saline.
Rats were submitted to a stereotaxic surgery to unilaterally implant cannulae (9.0 mm, 0.6 mm OD) into the dlPAG (coordinates: lateral: −1.9 mm; depth: −4.3 mm; angle: 16° from lambda; Paxinos and Watson, 2005), fixed to the skull with acrylic cement (Campos & Guimarães, 2008). The surgeries were performed under anesthesia with tribromoethanol 2.5% (10.0 mL/kg, IP) and immediately after the animals received Veterinary Pentabiotic (0.2 mL, intramuscular) and analgesic (Banamine, 1.0 mL/kg, subcutaneous) to prevent infections and decrease post-surgical pain. After surgery, animals underwent a recovery period of 5-7 days before the behavioral tests.
Animals received unilateral microinjections of vehicle or HU-475 into the dlPAG before being submitted to the behavioral tests. To this aim, microneedles (10.0 mm, 0.3 mm OD), connected to a microsyringe (Hamilton, USA, […]) through a segment of polyethylene (P10) were inserted into the guide cannulae. Solutions were injected with the help of an infusion pump (KD Scientific, USA). A 0.2 μL solution volume was injected over 1 min. After the injections, the needles remained inserted in the cannulae for additional 30 seconds to prevent drug reflux (Campos & Guimarães, 2008).
The wood EPM used to perform the experiments was located in a sound attenuated and temperature controlled room (23° C.), with one incandescent light (40 W) placed 1.3 m away from the maze. The apparatus consists of two opposing open arms (50×10 cm) without side walls, perpendicular to two enclosed arms (50×10×40 cm), with a central platform common to all arms (10×10 cm). The apparatus is elevated 50 cm above the ground and has an acrylic edge (1 cm) in the open arms to prevent animal falls. In this model, rodents naturally avoid the open arms, exploring more extensively the enclosed arms. […] The test lasted for 5 min and was recorded. The animal behavior was analyzed with the help of the Anymaze Software (version 4.5, Stoelting). […]
(§3) Results from HU-475 and HU-474 tests in the elevated plus maze were analyzed by Kruskal-Wallis followed by Mann-Whitney tests. Data from animals tested in the FST were analyzed by one-way ANOVA followed by Duncan test.

In test [8] the test system is mice tested in the elevated plus maze. Description: Elevated plus-maze (EPM) in mice, systemic (IP) administration. The class given is in vivo, Swiss mice. The protocol: as §1, §2
The wood EPM used to perform the experiments was located in a sound attenuated and temperature controlled room (23° C.), with one incandescent light (40 W) placed 1.3 m away from the maze. The apparatus consists of two opposing open arms (50×10 cm) without side walls, perpendicular to two enclosed arms (50×10×40 cm), with a central platform common to all arms (10×10 cm). The apparatus is elevated 50 cm above the ground and has an acrylic edge (1 cm) in the open arms to prevent animal falls. In this model, rodents naturally avoid the open arms, exploring more extensively the enclosed arms. Anxiolytic drugs increase the exploration in open arms without affecting the number of enclosed arms entries, which is usually used to assess general exploratory activity (File, 1992). Ten minutes after the last injection the animal was placed on the central platform of the maze with the head facing one of the enclosed arms. The test lasted for 5 min and was recorded. The animal behavior was analyzed with the help of the Anymaze Software (version 4.5, Stoelting). This software indicates the location of the animal in the EPM and automatically calculates the percentage of entries (Peo) and time spent in the open arms (Pto) and the number of entries in the enclosed arms (EA). Animals were only considered to enter an open or enclosed arm when 90% of their bodies were inside the region. All experiments were performed in the morning period (8 to 12 a.m.).
Similar to 5.1 except that the each arm measured 30×5 cm.
as §3

Test [9] has as its system mice tested in the FST. Description: Forced swimming test (FST) in mice. In kind it is in vivo, Swiss mice. To be noted: for immobility time in the FST: IP. The procedure:
as §1, §2
Animals were individually submitted for 6 min of forced swimming in glass cylinders (height 25 cm, diameter 17 cm) containing 10 cm of water. The mice were videotaped and the immobility time (characterized by slow movements necessary to avoid drowning) was measured during the last 4-min period. The water was changed after each trial to maintain the temperature at 23-25° C. and to prevent the influence of alarm substances (Zanelati et al., 2010).
as §3

The next test deals with C57BL/6J mice. Description: Pre-pulse inhibition (PPI) test, impairment induced by MK-801. In kind it is in vivo. The protocol: The experiments were performed using male C57BL/6J mice weighting 25-30 g. The animals were maintained throughout the experimental period under standard laboratory conditions with free access to water and food will be used.
HU-474 (3 and 10 mg/kg) was dissolved in 2% Tween 80 in sterile saline (vehicle). MK-801 (a NMDA antagonist, 0.5 mg/kg, Sigma, USA) was dissolved in saline. Drugs were administered intraperitoneally (ip) at 10 mL/kg volume.
The animals (n=9-11/group) received i.p. administration of vehicle or HU-474 (3 and 10 mg/kg) followed, 30 minutes later, by saline or MK-801 (0.5 mg/kg), resulting in the following experimental groups: vehicle+saline, HU 10+saline, vehicle+MK-801, HU 3+MK-801, HU 10+MK-801. The animals were submitted to PPI test 20 minutes after the last drug injection.
The PPI was carried out in three consecutive steps. The first consisted of an acclimation period during which no stimulus was presented. In the second step, called habituation, only the stimulus that triggers the startle (pulse) was presented. The step that assessed the inhibition of startle response pulse consisted of 64 random presentations of the different stimuli: (i) pulse (white noise) 105 dB at 20 ms, (II) pre-pulse (pure tone frequency of 7 kHz) 80, 85 and 90 dB at 10 ms, (III) followed by pre-pulse 100 ms interval between them and (IV) zero (no stimulus). During this session the stimuli are presented at regular intervals of 30 s, 8 presentations of each stimulus. The percentage of the PPI was expressed as the percent inhibition of startle amplitude in response to multiple presentations of the pulse preceded by pre-pulse (PP), depending on the amplitude of the response only to the pulse (P), which was obtained in the following formula: % PPI=100−((PP/P)×100). […]
The percentage of PPI was analyzed by repeated measures MANOVA with the treatment as the independent factor and the prepulse intensity (80, 85 and 90 dB) as repeated measure.

Values joined by “and” are separate entries in the source; they are usually repeats but may differ in a detail not shown here. Equal values may be shown once.

This is an account of results in patent US9782360B2, “Fluorinated CBD compounds, compositions and uses thereof” (YISSUM RESEARCH DEVELOPMENT COMPANY OF THE HEBREW …, priority 2013, dated 2017).

As to `C=C(C)[C@@H]1CCC(C)=C[C@H]1c1c(O)cc(CCCCC)cc1O` [CBD, cannabidiol], the “dose able to attenuate the hyper-locomotion induced by MK801” value in the test with Swiss mice [1] is reported as 30 mg/kg. The “effective doses (hyperlocomotion induced by d-amphetamine)” value in the test with Swiss mice [2] was 30 mg/kg and 60 mg/kg. Further, the “effective dose (attenuation of PPI deficits caused by MK801)” value with Swiss mice [3] is given as 5 mg/kg. Also, the “effective dose (anxiolytic-like effect, EPM)” value in [4] is 30 nmol. Besides, the “dose producing an anxiolytic-like effect in the Vogel punished licking test” value in test [5] was 30 nmol. Also, in the test with mice tested in the FST [6], the “dose producing an antidepressant-like effect in the forced swimming test” value is recorded as 30 mg/kg.

As to `C=C(CF)[C@@H]1CCC(C)=CC1c1c(OC(C)=O)cc(CCCCC)cc1OC(C)=O` (some centres unmarked) [HU-475, 10-fluoro-cannabidiol diacetate], the “number of enclosed arm entries” value in test [7] (HU-475 1, 3 and 10 nmol intra-dlPAG) is listed as “No effect”. The “percentage of time spent into the open arms” value in test [7] (HU-475 1, 3 and 10 nmol intra-dlPAG, X^2=8.5, DF=4, p=0.075, FIG. 2) is on record as “tended to do the same”. Moreover, the “percentage of entries onto the open arms” value in test [7] (HU-475 1, 3 and 10 nmol intra-dlPAG, X^2=9.66, DF=4, p<0.05, FIG. 1) is on record as “increased”. Moreover, the “potency relative to CBD (EPM, intra-dlPAG)” value in test [7] (intra-dlPAG, compared with CBD effective dose) came to 10 times.

Take `C=C(C)[C@@H]1CCC(C)=CC1c1c(O)cc(CCCCC)c(F)c1O` (some centres unmarked) [HU-474, 4′-fluoro-cannabidiol]: in test [8] (HU-474 1, 3 and 10 mg/kg IP), the “number of enclosed arms entries” value is given as “No effect”. In [8] (HU-474 1, 3 and 10 mg/kg IP, FIG. 4), the “percentage of entries onto the open arms” value is recorded as “No effect”. The “percentage of time spent in the open arms” value in test [8] (HU-474 1, 3 and 10 mg/kg IP, X^2=8.13, DF=3, p<0.05, FIG. 3) is given as “increased”. Further, the “effective dose (anxiolytic-like effects, EPM)” value in [8] (systemic administration, bell-shaped dose-response curve) stood at 3 mg/kg. Also, the “immobility time in the FST” value in the test on mice tested in the FST [9] (dose of 3 m/kg, p=0.019, FIG. 5) is listed as “decreased”; in the test with mice tested in the FST [9] (doses of 1 and 10 mg/kg), “ineffective”. For the same compound, the “potency relative to CBD (forced swimming test)” value in the test with mice tested in the FST [9] (i.p., compared with CBD effective dose) amounted to 10 times. Moreover, the “MK-801 PPI disruption (effect of treatment)” value in the test on C57BL/6J mice (HU-474 10 mg/kg i.p., MK-801 0.5 mg/kg, all prepulse intensities (80, 85, 90 dB), P<0.05, FIG. 6) is reported as “attenuated”. Also, the “effective dose (attenuation of MK-801 PPI disruption)” value with C57BL/6J mice (i.p., C57BL/6J mice) is 10 mg/kg.

`C[C@]12N[C@H](Cc3ccccc31)c1ccccc12` [MK-801, reference compound]: the “effect on PPI” value in the test on C57BL/6J mice (MK-801 0.5 mg/kg i.p., all prepulse intensities tested, P<0.05, Duncan post-test) was “significant PPI disruption”.
